Experimental data: ChEMBL document CHEMBL2203203, “Structure-activity relationships of 2-arylamido-5,7-dihydro-4H-thieno[2,3-c]pyran-3-carboxamide derivatives as cannabinoid receptor agonists and their analgesic action” (Bioorg Med Chem Lett, 2012)

Biological target: T1, Cannabinoid receptor 1 (Homo sapiens, UniProt P21554)
Experiment: Agonist activity at human CB1 receptor after 4 hrs by luciferase reporter gene assay
Format: functional

T1 sequence (P21554 whole entry): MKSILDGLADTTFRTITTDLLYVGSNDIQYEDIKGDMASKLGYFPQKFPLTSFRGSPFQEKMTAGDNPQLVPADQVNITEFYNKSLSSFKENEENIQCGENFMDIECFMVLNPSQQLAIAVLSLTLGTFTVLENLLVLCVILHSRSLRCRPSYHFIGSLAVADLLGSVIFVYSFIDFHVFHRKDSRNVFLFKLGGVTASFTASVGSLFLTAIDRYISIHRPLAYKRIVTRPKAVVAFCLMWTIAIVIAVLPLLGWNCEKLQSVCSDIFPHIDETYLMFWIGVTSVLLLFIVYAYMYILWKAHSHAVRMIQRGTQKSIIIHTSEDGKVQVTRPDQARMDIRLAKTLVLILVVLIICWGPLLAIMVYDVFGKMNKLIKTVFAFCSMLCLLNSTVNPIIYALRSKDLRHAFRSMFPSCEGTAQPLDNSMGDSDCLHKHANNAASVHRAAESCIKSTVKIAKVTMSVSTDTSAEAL

SMILES	EC50
COC1CN(C(=O)c2c(NC(=O)CC(C)(C)C)sc3c2CCCC3)C1	3970 nM
CC(C)(C)CC(=O)Nc1sc2c(c1C(=O)NCC1CC1)C(C)(C)CC2	243 nM
O=C(Nc1sc2c(c1C(=O)N1CCC(F)(F)CC1)CCOC2)c1ccccc1OC(F)(F)F	125 nM
COCCNC(=O)c1c(NC(=O)c2ccccc2OC(F)(F)F)sc2c1CCOC2	> 10000 nM
CC1OCc2sc(NC(=O)CC(C)(C)C)c(C(=O)N3CCCCC3)c21 (configuration not stated)	1660 nM
O=C(Nc1sc2c(c1C(=O)N1CC(F)(F)C1)CCC(F)(F)C2)c1ccccc1Cl	81 nM
CC(C)(C)CC(=O)Nc1sc2c(c1C(=O)N1CCC(F)(F)CC1)CCCC2	113 nM
COCC(C)(C)NC(=O)c1c(NC(=O)c2ccccc2OC(F)(F)F)sc2c1CCOC2	> 10000 nM
O=C(Nc1sc2c(c1C(=O)N1CC(F)(F)C1)CCC(F)(F)C2)c1ccccc1OC(F)(F)F	139 nM
COCC(C)(C)NC(=O)c1c(NC(=O)c2c(F)cccc2C(F)(F)F)sc2c1CCOC2	> 10000 nM
CC(C)(C)C(=O)c1c(NC(=O)c2ccccc2C(F)(F)F)sc2c1CCOC2	> 10000 nM
O=C(CN1CCCCC1)Nc1sc2c(c1C(=O)N1CCC(F)(F)CC1)CCCC2	3220 nM
COCCNC(=O)c1c(NC(=O)CC(C)(C)C)sc2c1CCCC2	1910 nM
CC(C)(C)CC(=O)Nc1sc2c(c1C(=O)N1CC(F)(F)C1)CCCC2	336 nM
O=C(Nc1sc2c(c1C(=O)N1CCC(F)(F)CC1)CCOC2)c1c(F)cccc1C(F)(F)F	251 nM
O=C(Nc1sc2c(c1C(=O)N1CCC(F)(F)CC1)CCOC2)c1ccccc1C(F)(F)F	80 nM
COCCNC(=O)c1c(NC(=O)C2CCCC2)sc2c1CCOC2	> 10000 nM
CC1(C)CCc2sc(NC(=O)c3ccccc3Cl)c(C(=O)NCC3CC3)c21	16 nM
COCCNC(=O)c1c(NC(=O)c2ccccc2OC(F)(F)F)sc2c1CCC(F)(F)C2	> 10000 nM
O=C(CN1CCCC1)Nc1sc2c(c1C(=O)N1CCC(F)(F)CC1)CCCC2	> 10000 nM
O=C(CN1CCCCC1)Nc1sc2c(c1C(=O)N1CC(F)(F)C1)CCCC2	> 10000 nM
COCCNC(=O)c1c(NC(=O)CC(C)(C)C)sc2c1CCOC2	> 10000 nM
COCCNC(=O)c1c(NC(=O)CC(C)(C)C)sc2c1C(C)(C)CC2	368 nM
O=C(Nc1sc2c(c1C(=O)N1CCOCC1)CCOC2)c1ccc(Cl)cc1Cl	> 10000 nM
O=C(Nc1sc2c(c1C(=O)N1CCOCC1)CCOC2)c1ccc(Cl)cc1	> 10000 nM
O=C(Nc1sc2c(c1C(=O)O)CCOC2)c1ccccc1Cl	> 10000 nM
O=C(CN1CCCC1)Nc1sc2c(c1C(=O)N1CC(F)(F)C1)CCCC2	> 10000 nM

Biological target: T2, Cannabinoid receptor 2 (Homo sapiens, UniProt P34972)
T2 sequence (P34972 whole entry): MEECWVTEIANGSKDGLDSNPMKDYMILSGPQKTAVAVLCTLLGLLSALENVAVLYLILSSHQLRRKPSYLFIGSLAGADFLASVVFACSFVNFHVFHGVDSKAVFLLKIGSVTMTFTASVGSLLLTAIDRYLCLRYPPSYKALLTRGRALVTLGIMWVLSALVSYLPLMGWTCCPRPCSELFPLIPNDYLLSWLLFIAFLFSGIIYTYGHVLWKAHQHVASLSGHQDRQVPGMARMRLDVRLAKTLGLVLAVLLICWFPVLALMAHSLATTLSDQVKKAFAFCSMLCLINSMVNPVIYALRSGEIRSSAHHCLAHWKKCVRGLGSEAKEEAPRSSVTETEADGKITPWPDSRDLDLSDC
Experiment: Agonist activity at human CB2 receptor after 4 hrs by luciferase reporter gene assay
Format: functional

SMILES	EC50
COC1CN(C(=O)c2c(NC(=O)CC(C)(C)C)sc3c2CCCC3)C1	47 nM
CC(C)(C)CC(=O)Nc1sc2c(c1C(=O)NCC1CC1)C(C)(C)CC2	6.4 nM
O=C(Nc1sc2c(c1C(=O)N1CCC(F)(F)CC1)CCOC2)c1ccccc1OC(F)(F)F	3.3 nM
COCCNC(=O)c1c(NC(=O)c2ccccc2OC(F)(F)F)sc2c1CCOC2	96 nM
CC1OCc2sc(NC(=O)CC(C)(C)C)c(C(=O)N3CCCCC3)c21 (configuration not stated)	40 nM
O=C(Nc1sc2c(c1C(=O)N1CC(F)(F)C1)CCC(F)(F)C2)c1ccccc1Cl	49 nM
CC(C)(C)CC(=O)Nc1sc2c(c1C(=O)N1CCC(F)(F)CC1)CCCC2	4.7 nM
COCC(C)(C)NC(=O)c1c(NC(=O)c2ccccc2OC(F)(F)F)sc2c1CCOC2	101 nM
O=C(Nc1sc2c(c1C(=O)N1CC(F)(F)C1)CCC(F)(F)C2)c1ccccc1OC(F)(F)F	18 nM
COCC(C)(C)NC(=O)c1c(NC(=O)c2c(F)cccc2C(F)(F)F)sc2c1CCOC2	74 nM
CC(C)(C)C(=O)c1c(NC(=O)c2ccccc2C(F)(F)F)sc2c1CCOC2	897 nM
O=C(CN1CCCCC1)Nc1sc2c(c1C(=O)N1CCC(F)(F)CC1)CCCC2	26 nM
COCCNC(=O)c1c(NC(=O)CC(C)(C)C)sc2c1CCCC2	23 nM
CC(C)(C)CC(=O)Nc1sc2c(c1C(=O)N1CC(F)(F)C1)CCCC2	5.4 nM
O=C(Nc1sc2c(c1C(=O)N1CCC(F)(F)CC1)CCOC2)c1c(F)cccc1C(F)(F)F	3.6 nM
O=C(Nc1sc2c(c1C(=O)N1CCC(F)(F)CC1)CCOC2)c1ccccc1C(F)(F)F	1.4 nM
COCCNC(=O)c1c(NC(=O)C2CCCC2)sc2c1CCOC2	313 nM
CC1(C)CCc2sc(NC(=O)c3ccccc3Cl)c(C(=O)NCC3CC3)c21	0.55 nM
COCCNC(=O)c1c(NC(=O)c2ccccc2OC(F)(F)F)sc2c1CCC(F)(F)C2	63 nM
O=C(CN1CCCC1)Nc1sc2c(c1C(=O)N1CCC(F)(F)CC1)CCCC2	209 nM
O=C(CN1CCCCC1)Nc1sc2c(c1C(=O)N1CC(F)(F)C1)CCCC2	56 nM
COCCNC(=O)c1c(NC(=O)CC(C)(C)C)sc2c1CCOC2	489 nM
COCCNC(=O)c1c(NC(=O)CC(C)(C)C)sc2c1C(C)(C)CC2	5.9 nM
O=C(Nc1sc2c(c1C(=O)N1CCOCC1)CCOC2)c1ccc(Cl)cc1Cl	9350 nM
O=C(Nc1sc2c(c1C(=O)N1CCOCC1)CCOC2)c1ccc(Cl)cc1	> 10000 nM
O=C(Nc1sc2c(c1C(=O)O)CCOC2)c1ccccc1Cl	> 10000 nM
O=C(CN1CCCC1)Nc1sc2c(c1C(=O)N1CC(F)(F)C1)CCCC2	394 nM

Biological target: T1, Cannabinoid receptor 1
Experiment: Agonist activity at human CB1 receptor after 4 hrs by luciferase reporter gene assay relative to control
Format: functional

SMILES	Efficacy
COC1CN(C(=O)c2c(NC(=O)CC(C)(C)C)sc3c2CCCC3)C1	63%
CC(C)(C)CC(=O)Nc1sc2c(c1C(=O)NCC1CC1)C(C)(C)CC2	96%
O=C(Nc1sc2c(c1C(=O)N1CCC(F)(F)CC1)CCOC2)c1ccccc1OC(F)(F)F	79%
CC1OCc2sc(NC(=O)CC(C)(C)C)c(C(=O)N3CCCCC3)c21 (configuration not stated)	88%
O=C(Nc1sc2c(c1C(=O)N1CC(F)(F)C1)CCC(F)(F)C2)c1ccccc1Cl	95%
CC(C)(C)CC(=O)Nc1sc2c(c1C(=O)N1CCC(F)(F)CC1)CCCC2	86%
O=C(Nc1sc2c(c1C(=O)N1CC(F)(F)C1)CCC(F)(F)C2)c1ccccc1OC(F)(F)F	93%
O=C(CN1CCCCC1)Nc1sc2c(c1C(=O)N1CCC(F)(F)CC1)CCCC2	100%
COCCNC(=O)c1c(NC(=O)CC(C)(C)C)sc2c1CCCC2	90%
CC(C)(C)CC(=O)Nc1sc2c(c1C(=O)N1CC(F)(F)C1)CCCC2	91%
O=C(Nc1sc2c(c1C(=O)N1CCC(F)(F)CC1)CCOC2)c1c(F)cccc1C(F)(F)F	94%
O=C(Nc1sc2c(c1C(=O)N1CCC(F)(F)CC1)CCOC2)c1ccccc1C(F)(F)F	90%
CC1(C)CCc2sc(NC(=O)c3ccccc3Cl)c(C(=O)NCC3CC3)c21	86%
COCCNC(=O)c1c(NC(=O)CC(C)(C)C)sc2c1C(C)(C)CC2	98%

Organism: Homo sapiens
Experiment: Selectivity ratio of EC50 for human CB1 receptor to EC50 for human CB2 receptor

SMILES	Ratio EC50
COC1CN(C(=O)c2c(NC(=O)CC(C)(C)C)sc3c2CCCC3)C1	85
CC(C)(C)CC(=O)Nc1sc2c(c1C(=O)NCC1CC1)C(C)(C)CC2	38
O=C(Nc1sc2c(c1C(=O)N1CCC(F)(F)CC1)CCOC2)c1ccccc1OC(F)(F)F	38
COCCNC(=O)c1c(NC(=O)c2ccccc2OC(F)(F)F)sc2c1CCOC2	> 104
CC1OCc2sc(NC(=O)CC(C)(C)C)c(C(=O)N3CCCCC3)c21 (configuration not stated)	42
O=C(Nc1sc2c(c1C(=O)N1CC(F)(F)C1)CCC(F)(F)C2)c1ccccc1Cl	2
CC(C)(C)CC(=O)Nc1sc2c(c1C(=O)N1CCC(F)(F)CC1)CCCC2	24
COCC(C)(C)NC(=O)c1c(NC(=O)c2ccccc2OC(F)(F)F)sc2c1CCOC2	> 100
O=C(Nc1sc2c(c1C(=O)N1CC(F)(F)C1)CCC(F)(F)C2)c1ccccc1OC(F)(F)F	8
COCC(C)(C)NC(=O)c1c(NC(=O)c2c(F)cccc2C(F)(F)F)sc2c1CCOC2	> 135
CC(C)(C)C(=O)c1c(NC(=O)c2ccccc2C(F)(F)F)sc2c1CCOC2	> 11
O=C(CN1CCCCC1)Nc1sc2c(c1C(=O)N1CCC(F)(F)CC1)CCCC2	126
COCCNC(=O)c1c(NC(=O)CC(C)(C)C)sc2c1CCCC2	84
CC(C)(C)CC(=O)Nc1sc2c(c1C(=O)N1CC(F)(F)C1)CCCC2	63
O=C(Nc1sc2c(c1C(=O)N1CCC(F)(F)CC1)CCOC2)c1c(F)cccc1C(F)(F)F	71
O=C(Nc1sc2c(c1C(=O)N1CCC(F)(F)CC1)CCOC2)c1ccccc1C(F)(F)F	57
COCCNC(=O)c1c(NC(=O)C2CCCC2)sc2c1CCOC2	> 32
CC1(C)CCc2sc(NC(=O)c3ccccc3Cl)c(C(=O)NCC3CC3)c21	30
COCCNC(=O)c1c(NC(=O)c2ccccc2OC(F)(F)F)sc2c1CCC(F)(F)C2	> 145
O=C(CN1CCCC1)Nc1sc2c(c1C(=O)N1CCC(F)(F)CC1)CCCC2	> 48
O=C(CN1CCCCC1)Nc1sc2c(c1C(=O)N1CC(F)(F)C1)CCCC2	> 178
COCCNC(=O)c1c(NC(=O)CC(C)(C)C)sc2c1CCOC2	> 20
COCCNC(=O)c1c(NC(=O)CC(C)(C)C)sc2c1C(C)(C)CC2	62
O=C(CN1CCCC1)Nc1sc2c(c1C(=O)N1CC(F)(F)C1)CCCC2	> 25

Biological target: T2, Cannabinoid receptor 2
Experiment: Agonist activity at human CB2 receptor after 4 hrs by luciferase reporter gene assay relative to control
Format: functional

SMILES	Efficacy
COC1CN(C(=O)c2c(NC(=O)CC(C)(C)C)sc3c2CCCC3)C1	110%
CC(C)(C)CC(=O)Nc1sc2c(c1C(=O)NCC1CC1)C(C)(C)CC2	101%
O=C(Nc1sc2c(c1C(=O)N1CCC(F)(F)CC1)CCOC2)c1ccccc1OC(F)(F)F	96%
COCCNC(=O)c1c(NC(=O)c2ccccc2OC(F)(F)F)sc2c1CCOC2	100%
CC1OCc2sc(NC(=O)CC(C)(C)C)c(C(=O)N3CCCCC3)c21 (configuration not stated)	91%
O=C(Nc1sc2c(c1C(=O)N1CC(F)(F)C1)CCC(F)(F)C2)c1ccccc1Cl	98%
CC(C)(C)CC(=O)Nc1sc2c(c1C(=O)N1CCC(F)(F)CC1)CCCC2	82%
COCC(C)(C)NC(=O)c1c(NC(=O)c2ccccc2OC(F)(F)F)sc2c1CCOC2	81%
O=C(Nc1sc2c(c1C(=O)N1CC(F)(F)C1)CCC(F)(F)C2)c1ccccc1OC(F)(F)F	99%
COCC(C)(C)NC(=O)c1c(NC(=O)c2c(F)cccc2C(F)(F)F)sc2c1CCOC2	94%
CC(C)(C)C(=O)c1c(NC(=O)c2ccccc2C(F)(F)F)sc2c1CCOC2	88%
O=C(CN1CCCCC1)Nc1sc2c(c1C(=O)N1CCC(F)(F)CC1)CCCC2	104%
COCCNC(=O)c1c(NC(=O)CC(C)(C)C)sc2c1CCCC2	94%
CC(C)(C)CC(=O)Nc1sc2c(c1C(=O)N1CC(F)(F)C1)CCCC2	99%
O=C(Nc1sc2c(c1C(=O)N1CCC(F)(F)CC1)CCOC2)c1c(F)cccc1C(F)(F)F	97%
O=C(Nc1sc2c(c1C(=O)N1CCC(F)(F)CC1)CCOC2)c1ccccc1C(F)(F)F	99%
COCCNC(=O)c1c(NC(=O)C2CCCC2)sc2c1CCOC2	84%
CC1(C)CCc2sc(NC(=O)c3ccccc3Cl)c(C(=O)NCC3CC3)c21	116%
COCCNC(=O)c1c(NC(=O)c2ccccc2OC(F)(F)F)sc2c1CCC(F)(F)C2	96%
O=C(CN1CCCC1)Nc1sc2c(c1C(=O)N1CCC(F)(F)CC1)CCCC2	87%
O=C(CN1CCCCC1)Nc1sc2c(c1C(=O)N1CC(F)(F)C1)CCCC2	103%
COCCNC(=O)c1c(NC(=O)CC(C)(C)C)sc2c1CCOC2	101%
COCCNC(=O)c1c(NC(=O)CC(C)(C)C)sc2c1C(C)(C)CC2	100%
O=C(Nc1sc2c(c1C(=O)N1CCOCC1)CCOC2)c1ccc(Cl)cc1Cl	108%
O=C(CN1CCCC1)Nc1sc2c(c1C(=O)N1CC(F)(F)C1)CCCC2	89%
